Our source for the Ki and solubility values is ChEMBL document CHEMBL1158628, “Quinlobelane: a water-soluble lobelane analogue and inhibitor of VMAT2” (Bioorg Med Chem Lett, 2010).

Series [1] concerns the target T1, Synaptic vesicular amine transporter (Rattus norvegicus, UniProt Q01827). The series can be described thus: Displacement of [3H]DTBZ from VMAT2 in rat synaptic vesicle membranes after 30 mins by liquid scintillation counting. The class given is cell membranes, Membrane.
For series [2], the target named is T1, Synaptic vesicular amine transporter. The series can be described thus: Inhibition of VMAT2-mediated [3H]dopamine uptake in rat synaptic vesicle membranes. The class given is cell membranes, Membrane.
Series [3] in a line: Aqueous solubility in water. The class given is physicochemical.

T1 sequence (Q01827 whole entry): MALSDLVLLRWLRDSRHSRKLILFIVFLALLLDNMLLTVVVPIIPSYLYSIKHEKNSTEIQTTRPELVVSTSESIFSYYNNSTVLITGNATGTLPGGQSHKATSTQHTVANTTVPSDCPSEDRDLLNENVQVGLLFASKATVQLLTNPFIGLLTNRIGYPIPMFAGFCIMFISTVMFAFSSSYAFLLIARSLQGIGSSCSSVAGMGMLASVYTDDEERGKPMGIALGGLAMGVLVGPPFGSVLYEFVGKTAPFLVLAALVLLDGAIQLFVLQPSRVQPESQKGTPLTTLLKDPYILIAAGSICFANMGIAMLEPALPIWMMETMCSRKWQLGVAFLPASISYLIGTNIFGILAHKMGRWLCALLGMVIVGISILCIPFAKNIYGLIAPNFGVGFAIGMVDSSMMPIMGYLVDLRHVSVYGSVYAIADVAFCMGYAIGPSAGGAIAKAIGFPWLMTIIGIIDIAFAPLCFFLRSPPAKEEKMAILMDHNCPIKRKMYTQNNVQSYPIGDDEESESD

Regarding `CN1[C@@H](CCc2cccnc2)CCC[C@H]1CCc1cccnc1`, the Ki in series [1] was 33.3 µM; in series [2] it was 3.72 µM.

For the compound `CN1[C@@H](CCc2c[nH]c3ccccc23)CCC[C@H]1CCc1c[nH]c2ccccc12`, the Ki in series [1] came out at 26 µM; in series [2], 2.13 µM.

In the case of `CN1[C@@H](CCc2ccncc2)CCC[C@H]1CCc1ccncc1`, the Ki was 5.87 µM in series [1] and 5.23 µM in series [2].

As for `CN1[C@@H](CCc2ccnc3ccccc23)CCC[C@H]1CCc1ccnc2ccccc12.Cl` [QUINLOBELANE], the Ki in series [1] amounted to 2.64 µM; in series [2], 0.051 µM. Moreover, the solubility in series [3] was at least 20000 µg/mL.

Regarding `CN1[C@@H](CCc2ccccc2)CCC[C@H]1CCc1ccccc1.O=S(=O)(O)O`, the solubility in series [3] was 300 µg/mL.

With `CN1[C@@H](CCc2ccc3ccccc3n2)CCC[C@H]1CCc1ccc2ccccc2n1`, the Ki in series [1] is 0.96 µM; in series [2], 0.067 µM.
